From patent publication US4575496A, “Erythromycin salt of the o-carbonyl(1-thiazolidinyl)-benzoic acid and pharmaceutical compositions containing it” (Camillo Corvi S.p.A., priority 1983, dated 1986)
Converted amounts (≈) assume the structure as drawn. “And” between values parts separate entries of the source, which are not always exact repeats. Equal values may be shown once. Read-outs that look alike come from different tables or passages of the source.

How the values were obtained:
Staph. epiderm. clin. [1] = assay: Antimicrobic activity, in vitro (CIM), second clinical isolate; assay type: cell-based, Staph. epiderm. (isolated clinically)
Description: (§1) Chim.Farm.119, p.181, 1980.
(§2) Antimicrobic activity, in vitro.
(§3) CIM^(1) values (mcg/ml)
(§4) ^(1) CIM = Mic = Minimal inhibitory concentration
(§5) ^(2) Clin. = Isolated clinically.

staphylococcus aureus [2] = tested on: staphylococcus aureus; parameters: unit not given beside the values; conditions: intramuscular
Description: In Table 4, the activity data relating to the mucus production in the rabbit is reported, according to the method by Scuri et al., published in Boll. Chim.Farm.119, p.181, 1980.

Staph. aureus 6538 = assay: Antimicrobic activity, in vitro (CIM); assay type: cell-based, Staph. aureus 6538 (ATCC); conditions: Staph. aureus 6538, in vitro
Description: as §1, §2, §3, §4
(§6) ^(3) The 4digit strains are ATCC's

Staph. aureus 1414 = assay: Antimicrobic activity, in vitro (CIM); assay type: cell-based, Staph. aureus 1414 (ATCC); conditions: Staph. aureus 1414, in vitro
Description: as §1, §2, §3, §4, §6

Micrococcus luteus 9341 = assay: Antimicrobic activity, in vitro (CIM); assay type: cell-based, Micrococcus luteus 9341 (ATCC); conditions: Micrococcus luteus 9341, in vitro
Description: as §1, §2, §3, §4, §6

staphylococcus aureus [3] = tested on: staphylococcus aureus; parameters: unit not given beside the values; conditions: oral, 1 treatment
rabbit mucoproduction = assay: Activity on the rabbit mucoproduction (method of Scuri et al.); assay type: in vivo
Description: as §1
Activity on the rabbit mucoproduction.

Strept. faecalis 8043 = assay: Antimicrobic activity, in vitro (CIM); assay type: cell-based, Strept. faecalis 8043 (ATCC); conditions: Strept. faecalis 8043, in vitro
Description: as §1, §2, §3, §4, §6

rat = assay: Oral acute toxicity in the rat; assay type: in vivo
Description: as §1
(§7) Oral acute toxicity in the rat

Staph. epiderm. clin. [4] = assay: Antimicrobic activity, in vitro (CIM), first clinical isolate; assay type: cell-based, Staph. epiderm. (isolated clinically)
Description: as §1, §2, §3, §4, §5

Serr. marcescens cl. = assay: Antimicrobic activity, in vitro (CIM); assay type: cell-based, Serr. marcescens (isolated clinically)
Description: as §1, §2, §3, §4, §5

Proteus vulgaris = assay: Antimicrobic activity, in vitro (CIM); assay type: cell-based
Description: as §1, §2, §3, §4

Pseudomonas aeruginosa = assay: Antimicrobic activity, in vitro (CIM); assay type: cell-based
Description: as §1, §2, §3, §4

Candida albicans = assay: Antimicrobic activity, in vitro (CIM); assay type: cell-based
Description: as §1, §2, §3, §4

Escherichia coli 418 = assay: Antimicrobic activity, in vitro (CIM); assay type: cell-based; conditions: Escherichia coli 418, in vitro
Description: as §1, §2, §3, §4

[5] = Oral acute toxicity in the rat; assay type: in vivo; conditions: in vivo, rat, read-out: DL50 (the source's name)
Description: as §1, §7

[6] = read-out: CIM (Mic, minimal inhibitory concentration)
[7] = Staphylococcus aureus, read-out: CIM (Mic, minimal inhibitory concentration)

CC[C@H]1OC(=O)[C@H](C)[C@@H](O[C@H]2C[C@@](C)(OC)[C@@H](O)[C@H](C)O2)[C@H](C)[C@@H](O[C@@H]2O[C@H](C)C[C@H](N(C)C)[C@H]2O)[C@](C)(O)C[C@@H](C)C(=O)[C@H](C)[C@@H](O)[C@]1(C)O.O=C(O)c1ccccc1C(=O)N1CCSC1 [CO/1316, erythromycin salt of o-carbonyl(1-thiazolidinyl)-benzoic acid]
CIM (Mic, minimal inhibitory concentration) (Staph. epiderm. clin. [1]): 0.1 µg/mL
DI50 (staphylococcus aureus [2]; medium infection, 5 treatments): 76 and 152
DI50 (staphylococcus aureus [2]; serious infection, 1 treatment): 210 and 390
CIM (Mic, minimal inhibitory concentration) (Staph. aureus 6538): 10 µg/mL
CIM (Mic, minimal inhibitory concentration) (Staph. aureus 1414): 10 µg/mL
CIM (Mic, minimal inhibitory concentration) (Micrococcus luteus 9341): 0.1 µg/mL
DI50 (staphylococcus aureus [3]; medium infection): 350 and 510
DI50 (staphylococcus aureus [3]; serious infection): 560 and 720
Anim. with increase / Treated anim. (rabbit mucoproduction; 40 mg/kg ev): 9/14
Anim. with increase / Treated anim., % (rabbit mucoproduction; 40 mg/kg ev): 64/2
Mucoproduction: Var. % (rabbit mucoproduction; 40 mg/kg ev): +45%
Solubility in 95% ethanol (95% ethanol): 32%
Solubility in acetone (acetone): 50%
Solubility in chloroform (chloroform): 50%
Solubility in dioxane (dioxane): 15%
Solubility in ethanol (ethanol): 50%
Solubility in ethyl ether (ethyl ether): 0.1%
Solubility in methanol (methanol): 57%
Solubility in n-hexane (n-hexane): pratically insoluble
Solubility in toluene (toluene): 0.3%
Solubility in water (water, ambient temperature): 3 % W/V
CIM (Mic, minimal inhibitory concentration) (Strept. faecalis 8043): 0.6 µg/mL
acute oral toxicity compared with erythromycin base (rat): substantially coincides with that of the erythromycin base
DL50 (rat; rat): > 5.0 g/kg
CIM (Mic, minimal inhibitory concentration) (Staph. epiderm. clin. [4]): 10 µg/mL
CIM (Mic, minimal inhibitory concentration) (Serr. marcescens cl.): 100 µg/mL
CIM (Mic, minimal inhibitory concentration) (Proteus vulgaris): 5 µg/mL
CIM (Mic, minimal inhibitory concentration) (Pseudomonas aeruginosa; in vitro): +100 mcg/ml
CIM (Mic, minimal inhibitory concentration) (Candida albicans): 100 µg/mL
CIM (Mic, minimal inhibitory concentration) (Escherichia coli 418): 50 µg/mL

CC[C@H]1OC(=O)[C@H](C)[C@@H](O[C@H]2C[C@@](C)(OC)[C@@H](O)[C@H](C)O2)[C@H](C)[C@@H](O[C@@H]2O[C@H](C)C[C@H](N(C)C)[C@H]2O)[C@](C)(O)C[C@@H](C)C(=O)[C@H](C)[C@@H](O)[C@]1(C)O [Erythromycin]
MIC (Staph. epiderm. clin. [1]; [6]): 0.1 µg/mL (≈ 0.136 µM)
MIC (Staph. aureus 6538; [7]): 10 µg/mL (≈ 13.6 µM)
MIC (Staph. aureus 1414; [7]): 10 µg/mL (≈ 13.6 µM)
MIC (Micrococcus luteus 9341; [6]): 0.1 µg/mL (≈ 0.136 µM)
Anim. with increase / Treated anim. (rabbit mucoproduction; 30 mg/kg ev): 0/10
Mucoproduction: Var. % (rabbit mucoproduction; 30 mg/kg ev): Inactive
MIC (Strept. faecalis 8043; Enterococcus faecalis, read-out: CIM (Mic, minimal inhibitory concentration)): 0.3 µg/mL (≈ 0.409 µM)
LD50 [5]: > 5000 mg/kg
MIC (Staph. epiderm. clin. [4]; [6]): 10 µg/mL (≈ 13.6 µM)
MIC (Serr. marcescens cl.; Serratia marcescens, read-out: CIM (Mic, minimal inhibitory concentration)): 50 µg/mL (≈ 68.1 µM)
MIC (Proteus vulgaris; [6]): 2.5 µg/mL (≈ 3.41 µM)
MIC (Pseudomonas aeruginosa; [6]): 100 µg/mL (≈ 136 µM)
MIC (Candida albicans; [6]): 100 µg/mL (≈ 136 µM)
MIC (Escherichia coli 418; [6]): 25 µg/mL (≈ 34.1 µM)
